Data: patent US10646489B2, “Compositions and methods for increasing energy metabolism” (NuSirt Sciences, Inc., priority 2012, dated 2020)

Assays:
C2C12 myotubes [1] = assay: Fatty acid oxidation (O2 consumption response to palmitate injection) in C2C12 myotubes / muscle cells; type: cell-based; details: C2C12 myotubes; sildenafil 1 nM (change from baseline) or leucine 0.5 mM alone
Method: Fatty acid oxidation was measured as O2 consumption response to palmitate injection and is expressed as % change from pre-injection baseline. […] Data expressed as % change from control value. *p=0.013; **p=0.015. The output of the pathways can be measured using one or more methods, disclosed herein and/or known in the art. […] Mitochondrial biogenesis can be measured using a mitochondrial probe by using fluorescence. AMPK activity can be determined by measuring AMPK phosphorylation via an ELISA assay or by Western blot. Sirt1 activity can be determined by measuring deacetylation of a substrate, which can be detected using a fluorophore. […] Treatment with 0.5 mM leucine corresponds to a circulating level of the same molarity achieved by administering about 1,125 mg of dietary leucine to a human subject. Treatment with 0.25 mM leucine corresponds to a circulating level of the same molarity achieved by administering about 300 mg of dietary leucine to a human subject.

3T3-L1 adipocytes [2] = assay: Fatty acid oxidation in 3T3-L1 adipocytes / adipocytes; type: cell-based; details: 3T3-L1 adipocytes; leucine 0.5 mM or HMB 5 μM alone; p<0.05
Excerpt: Data expressed as % change from control value.*p<0.05. The output of the pathways can be measured using one or more methods, disclosed herein and/or known in the art. […] Mitochondrial biogenesis can be measured using a mitochondrial probe by using fluorescence. AMPK activity can be determined by measuring AMPK phosphorylation via an ELISA assay or by Western blot. Sirt1 activity can be determined by measuring deacetylation of a substrate, which can be detected using a fluorophore. […] Treatment with 0.5 mM leucine corresponds to a circulating level of the same molarity achieved by administering about 1,125 mg of dietary leucine to a human subject. Treatment with 0.25 mM leucine corresponds to a circulating level of the same molarity achieved by administering about 300 mg of dietary leucine to a human subject.

3T3-L1 adipocytes [3] = assay: Glucose utilization (extracellular acidification response to glucose injection) in 3T3-L1 adipocytes / adipocytes; type: cell-based; details: 3T3-L1 cells; leucine alone; p<0.05
Method: (§1) Glucose utilization was measured as extracellular acidification response to glucose injection. *p=0.05. […] Treatment with 0.5 mM leucine corresponds to a circulating level of the same molarity achieved by administering about 1,125 mg of dietary leucine to a human subject. Treatment with 0.25 mM leucine corresponds to a circulating level of the same molarity achieved by administering about 300 mg of dietary leucine to a human subject.

diet-induced obese mouse [4] = assay: Fasting blood glucose, insulin and HOMAIR in the diet-induced obese mouse; type: in vivo; details: 6 week treatment
Method: The interactive effects of icariin, a flavanol with specific PDE5 inhibitory properties, on glycemia and insulin sensitivity were assessed in the diet-induced obese mouse, which can be used as a murine model of type 2 diabetes. Male C57/BL6 mice were placed on standard low-fat chow (control; 10% energy from fat) or high fat (60% energy from fat, Research Diets # D12492, Research Diets, Inc, New Brunswick, N.J.) at six weeks of age to induce insulin resistance. […] The animals were then randomized to the following diets for an additional six weeks, with 10 animals per group: Low fat diet (LFD) control; High fat diet (HFD) control; HFD+leucine (24 g/kg diet, a two-fold increase over control levels)1 HFD+leucine (24 g/kg diet)+icariin (25 mg/kg diet). […] Mice were fasted overnight (˜16 hours) prior to measurement of fasting blood glucose, insulin and glucose tolerance. Glucose tolerance was determined following measurement of fasting glucose via intraperitoneal administration of glucose (1.2 g/kg body weight) followed by blood glucose measurement at 15, 30, 60, 90 and 120 minutes. Post-prandial glucose was measured within one hour of cessation of eating. Insulin tolerance was measured via an insulin tolerance test (ITT). Food was removed 4-6 hours prior to ITT, and baseline blood glucose measured. The mice were then injected intraperitoneally with insulin (1.2 U/kg body weight) and blood glucose was measured 15, 30, 60, 90 and 120 minutes following insulin injection. The homeostasis model assessment of insulin resistance (HOMAIR) was used as a screening index of changes in insulin sensitivity. HOMAIR is calculated via standard formula from fasting plasma insulin and glucose as follows: HOMAIR=[Insulin (uU/mL)×glucose (mM)]/22.5. The plasma glucose and insulin concentrations were measured using the Glucose Assay Kit from Biovision (Milpitas, Calif.) and the Insulin kit from Millipore (Billerica, Mass.), respectively. CRP levels in plasma were determined by ELISA (CRP: Life Diagnostics, West Chester, Pa.).

C2C12 myotubes [5] = assay: Glucose utilization (extracellular acidification response to glucose injection) in C2C12 myotubes / muscle cells; type: cell-based; details: C2C12 myotubes; leucine alone
Method: as §1, with “*p=0.04.” for “*p=0.05.”

diet-induced obese mouse [6] = assay: Liver mass in the diet-induced obese mouse; type: in vivo; details: 6 week treatment
Method: The interactive effects of icariin, a flavanol with specific PDE5 inhibitory properties, on glycemia and insulin sensitivity were assessed in the diet-induced obese mouse, which can be used as a murine model of type 2 diabetes. Male C57/BL6 mice were placed on standard low-fat chow (control; 10% energy from fat) or high fat (60% energy from fat, Research Diets # D12492, Research Diets, Inc, New Brunswick, N.J.) at six weeks of age to induce insulin resistance. […] The animals were then randomized to the following diets for an additional six weeks, with 10 animals per group: Low fat diet (LFD) control; High fat diet (HFD) control; HFD+leucine (24 g/kg diet, a two-fold increase over control levels)1 HFD+leucine (24 g/kg diet)+icariin (25 mg/kg diet). […] A chronic high fat diet is associated with other deleterious consequences. For example, a chronic high fat diet can increase liver mass, likely resulting from fatty accumulation in the liver. Chronic high fat feeding is also associated with chronic inflammation, which can contribute to a number of diseases. To determine the effects of leucine or leucine+icariin administration on additional consequences of high fat feeding, liver mass and C-reactive protein (a biomarker of inflammation) were assessed in all experimental groups at the end of the 6 week study. […] HFD, FIG. 26). […]

leucine
fatty acid oxidation, agent alone (C2C12 myotubes [1]): 73% | fatty acid oxidation, agent alone (3T3-L1 adipocytes [2]): 27% | glucose utilization, agent alone (3T3-L1 adipocytes [3]): 48.6% | reduction in HOMAIR vs. untreated HFD mice (diet-induced obese mouse [4]): ~30% | reduction in circulating insulin during fasting vs. untreated HFD mice (diet-induced obese mouse [4]): ~25% | reduction in fasting glucose vs. untreated HFD mice (diet-induced obese mouse [4]): ~20% | glucose utilization, agent alone (C2C12 myotubes [5]): 9.3% | reduction in liver mass vs. untreated HFD mice (diet-induced obese mouse [6]): ~10%
